# Values quoted from earlier work as cited in paper PMC6832551, “An Antiviral Peptide from Alopecosa nagpag Spider Targets NS2B–NS3 Protease of Flaviviruses” (Toxins, 2019).
# Structures can show the parent of a compound that is named as a salt.
# Tested on: ZIKV
# From the text: Despite their differences in pathogeneses, DENV and ZIKV are representative, emerging mosquito-borne flaviviruses with similar replication cycles which infect millions of people annually. The non-structural proteins of flaviviruses are important for virus replication and assembly. It has been established that NS2B–NS3 forms the viral protease and NS3 alone serves as the dsRNA helicase. Recently, the NS2B–NS3 protease became an attractive antiviral target, and many of its inhibitors have been reported as potential antivirals. Protease inhibitors are ubiquito ...
smiles,measurement,value
"CC(C)C[C@H]1C(=O)N2CCC[C@H]2[C@]2(O)O[C@](NC(=O)[C@@H]3C=C4c5cccc6[nH]c(Br)c(c56)C[C@H]4N(C)C3)(C(C)C)C(=O)N12 [bromocriptine, Bromocriptine mesylate]",ZIKV viral replication (in words),confirmed to inhibit ZIKV protease activity and viral replication
